ChEMBL document CHEMBL2375310, “Analysis of the antioxidant properties of differently substituted 2- and 3-indolyl carbohydrazides and related derivatives” (Eur J Med Chem, 2013)
Active and inactive are the calls of the source. The rule behind the calls is not given here.

Key:
Rattus norvegicus = test: Antiinflammatory activity in Fisher 344 rat assessed as reduction of carrageenan-induced paw oedema at 0.01 mmol/kg, ip after 3.5 hrs; type: functional; parameters: scale not given: the % may be the effect or the level left
[1] = Inhibition of soybean lipoxygenase; parameters: species or system Glycine max
[2] = Antioxidant activity assessed as xanthine-xanthine oxidase-induced superoxide anion radical scavenging activity at 0.1 mM after 10 mins by spectrophotometry; type: functional
[3] = Antioxidant activity assessed as Fe3+/ascorbic acid-induced hydroxyl radical scavenging activity at 100 uM after 30 mins; type: functional
[4] = Antioxidant activity against AAPH-induced lipid peroxidation at 100 uM by UV spectrophotometry; type: functional
[5] = system: Radical scavenging activity; test: Antioxidant activity assessed as DPPH free radical scavenging activity at 100 uM after 60 mins by spectrophotometry; type: functional
[6] = system: Radical scavenging activity; test: Antioxidant activity assessed as DPPH free radical scavenging activity at 100 uM after 20 mins by spectrophotometry; type: functional
[7] = system: Radical scavenging activity; test: Antioxidant activity assessed as DPPH free radical scavenging activity at 50 uM after 20 to 60 mins by spectrophotometry; type: functional
[8] = system: Radical scavenging activity; test: Antioxidant activity assessed as DPPH free radical scavenging activity at 100 uM by spectrophotometry; type: functional
Glycine max = test: Inhibition of soybean lipoxygenase at 100 uM

SMILES	IC50 [1] [µM]	inhibition (Glycine max)	Activity (Rattus norvegicus) [%]	Activity [2]	Activity [3]	Activity [4]	Activity [5] [%]	Activity [6]	Activity [7]	Activity [8]
CC(C)=NNC(=O)c1cc2ccccc2n1C	62.5		40	100%	18%	87%	91	inactive	inactive	
Cc1ccc(CNNC(=O)c2cc3ccccc3n2C)cc1	78			67%	inactive	85%	61	66%	inactive	Active
COc1ccc2c(c1)c(CC(=O)O)c(C)n2C(=O)c1ccc(Cl)cc1 [INDOMETHACIN]			47							
NNC(=O)CCc1c[nH]c2ccccc12		inactive		67%	inactive	inactive	56	12.5%	inactive	
O=C(O)/C=C/c1ccc(O)c(O)c1				15%						
CC(Cc1ccc(O)c(O)c1)C(C)Cc1ccc(O)c(O)c1 (centres undefined)							83	81%		
C/C(Cc1ccccc1)=N/NC(=O)c1c[nH]c2ccc(O)cc12		52%		inactive	2%	50%	80	65%	inactive	
Cc1c(C)c2c(c(C)c1O)CCC(C)(C(=O)O)O2 (centres undefined)					73%	63%				
NNCCCc1c[nH]c2ccccc12		inactive		inactive	34%	25%	99	85%	inactive	

Further lines, with some results ahead:

IC50 [1] [µM]	inhibition (Glycine max)	SMILES	Activity (Rattus norvegicus) [%]	Activity [2]	Activity [3]	Activity [4]	Activity [5] [%]	Activity [6]	Activity [7]	Activity [8]
	31%	C/C(CC(C)C)=N\NC(=O)c1cc2ccccc2[nH]1		inactive	74%	68%	36	10%	inactive	Active
	19%	CCC(CC)NNC(=O)c1cc2ccccc2[nH]1		inactive	61%	30%	16	11%	inactive	Active
	37%	O=C(NN=C1CCCC1)c1cc2ccccc2[nH]1		inactive	17%	65%	38	inactive	inactive	Active
62.5		CCCCNNC(=O)c1cc2ccccc2[nH]1	57	33%	90%	78%	8	79%	inactive	Active
	33%	O=C(NNCCCc1ccccc1)c1cc2ccccc2[nH]1		inactive	inactive	64%	8.5	53%	inactive	Active
